This note sets out measurements from ChEMBL document CHEMBL2074301, “Effect of endotoxin on doxorubicin transport across blood-brain barrier and P-glycoprotein function in mice” (Eur J Pharmacol, 2002).

The target of the data set is ATP-dependent translocase ABCB1 (Mus musculus, UniProt P21447). The data set can be described thus: TP_TRANSPORTER: Western in vivo, brain of ddY mouse. Format: functional, organism-based.
Sequence of ATP-dependent translocase ABCB1 (P21447 whole entry): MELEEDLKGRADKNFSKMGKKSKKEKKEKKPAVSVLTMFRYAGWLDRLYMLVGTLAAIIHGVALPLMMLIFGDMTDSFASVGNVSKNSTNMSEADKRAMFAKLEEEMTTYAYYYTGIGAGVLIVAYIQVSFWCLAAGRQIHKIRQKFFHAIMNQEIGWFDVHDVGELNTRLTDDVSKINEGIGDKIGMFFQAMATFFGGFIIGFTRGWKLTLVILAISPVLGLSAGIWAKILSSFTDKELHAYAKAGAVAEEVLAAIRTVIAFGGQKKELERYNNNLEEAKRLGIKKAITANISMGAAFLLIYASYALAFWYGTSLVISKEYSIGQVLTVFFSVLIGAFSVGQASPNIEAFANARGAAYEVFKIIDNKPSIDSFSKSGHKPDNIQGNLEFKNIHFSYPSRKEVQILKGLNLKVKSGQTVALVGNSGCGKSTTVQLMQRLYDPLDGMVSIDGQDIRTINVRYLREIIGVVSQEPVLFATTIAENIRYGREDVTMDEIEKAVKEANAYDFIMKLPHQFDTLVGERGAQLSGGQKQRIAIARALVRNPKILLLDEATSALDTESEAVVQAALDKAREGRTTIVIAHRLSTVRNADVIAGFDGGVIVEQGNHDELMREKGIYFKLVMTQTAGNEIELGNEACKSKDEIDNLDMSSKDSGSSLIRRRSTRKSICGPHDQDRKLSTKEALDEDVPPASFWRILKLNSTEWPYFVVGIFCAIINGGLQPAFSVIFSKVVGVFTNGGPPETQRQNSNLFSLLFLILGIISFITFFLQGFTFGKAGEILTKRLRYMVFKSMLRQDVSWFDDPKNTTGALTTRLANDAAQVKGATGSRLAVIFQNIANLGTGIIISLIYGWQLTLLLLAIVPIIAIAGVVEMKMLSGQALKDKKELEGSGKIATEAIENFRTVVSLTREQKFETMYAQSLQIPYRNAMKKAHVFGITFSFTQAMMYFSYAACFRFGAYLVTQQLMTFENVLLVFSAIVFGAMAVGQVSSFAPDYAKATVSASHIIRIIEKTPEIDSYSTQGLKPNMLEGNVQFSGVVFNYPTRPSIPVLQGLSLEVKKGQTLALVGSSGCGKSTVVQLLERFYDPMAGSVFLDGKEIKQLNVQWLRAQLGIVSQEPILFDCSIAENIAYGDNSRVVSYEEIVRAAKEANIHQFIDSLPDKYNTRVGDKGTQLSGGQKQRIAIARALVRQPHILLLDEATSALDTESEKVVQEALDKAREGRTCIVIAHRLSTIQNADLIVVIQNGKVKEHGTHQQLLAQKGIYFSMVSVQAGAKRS

In the case of `CCCCCCCCCCCCCC(=O)OC(CCCCCCCCCCC)CC(=O)OC1C(NC(=O)CC(CCCCCCCCCCC)OC(=O)CCCCCCCCCCC)C(OC2CC(OC(=O)CC(O)CCCCCCCCCCC)C(NC(=O)CC(O)CCCCCCCCCCC)C(O)O2)OC(CO)C1OP(=O)(O)O` (stereo unspecified), the Activity result was “inducer [Decrease]”.
